Measurements reported in ChEMBL document CHEMBL3822358 (J Med Chem, 2016).
In brackets after ≈: the same amount, converted by molar mass. Activity calls are given as the source filed them. The rule behind the calls is not given here.

Columns and labels:
[1] = biological target: Insulin-like growth factor 1 receptor (Homo sapiens, UniProt P08069)
Insulin receptor = Insulin receptor (Homo sapiens, UniProt P06213)
Description: Inhibition of human InsR using myelin basic protein as substrate and [gamma-33P]ATP measured after 1 hr

Rattus norvegicus [2] = experiment: (§1) AUC (0 to infinity) in CD rat at 3 mg/kg, iv by LC-MS/MS analysis; assay type: ADME, organism-based; design: dose 3 mg/kg, time infinity, route intravenous; conditions: in vivo
Rattus norvegicus [3] = experiment: (§2) Half life in CD rat at 3 mg/kg, iv by LC-MS/MS analysis; assay type: ADME, organism-based; conditions: in vivo
Rattus norvegicus [4] = experiment: (§3) Volume of distribution at steady state in CD rat at 3 mg/kg, iv by LC-MS/MS analysis; assay type: ADME, organism-based; conditions: in vivo
[5] = Cmax in CD rat at 10 mg/kg, po by LC-MS/MS analysis; assay type: ADME, organism-based; design: dose 10 mg/kg, route oral; conditions: in vivo
[6] = AUC (0 to infinity) in CD rat at 10 mg/kg, po by LC-MS/MS analysis; assay type: ADME, organism-based; design: dose 10 mg/kg, route oral, time infinity; conditions: in vivo
[7] = Tmax in CD rat at 10 mg/kg, po by LC-MS/MS analysis; assay type: ADME, organism-based; conditions: in vivo
[8] = Half life in CD rat at 10 mg/kg, po by LC-MS/MS analysis; assay type: ADME, organism-based; conditions: in vivo
[9] = Oral bioavailability in CD rat at 10 mg/kg by LC-MS/MS analysis; assay type: ADME, organism-based; conditions: in vivo
[10] = Cmax in mouse at 10 mg/kg, po by LC-MS/MS analysis; assay type: ADME, organism-based; design: dose 10 mg/kg, route oral; conditions: in vivo
[11] = AUC (0 to 24 hrs) in mouse at 10 mg/kg, po by LC-MS/MS analysis; assay type: ADME, organism-based; design: time < 24 hr, dose 10 mg/kg, route oral; conditions: in vivo
[12] = Half life in mouse at 10 mg/kg, po by LC-MS/MS analysis; assay type: ADME, organism-based; conditions: in vivo
[13] = biological target: T1, ALK tyrosine kinase receptor (Homo sapiens, UniProt Q9UM73); experiment: Inhibition of ALK phosphorylation in mouse xenografted with human KARPAS299 cells assessed as p-ALK level at 25 mg/kg, po administered as single dose measured after 10 hrs relative to 2 hrs vehicle-treated tumor; assay type: organism-based; design: scale not given: the % may be the effect or the level left; conditions: KARPAS-299
Target sequence in this assay (Q9UM73 19-1620 limits assumed): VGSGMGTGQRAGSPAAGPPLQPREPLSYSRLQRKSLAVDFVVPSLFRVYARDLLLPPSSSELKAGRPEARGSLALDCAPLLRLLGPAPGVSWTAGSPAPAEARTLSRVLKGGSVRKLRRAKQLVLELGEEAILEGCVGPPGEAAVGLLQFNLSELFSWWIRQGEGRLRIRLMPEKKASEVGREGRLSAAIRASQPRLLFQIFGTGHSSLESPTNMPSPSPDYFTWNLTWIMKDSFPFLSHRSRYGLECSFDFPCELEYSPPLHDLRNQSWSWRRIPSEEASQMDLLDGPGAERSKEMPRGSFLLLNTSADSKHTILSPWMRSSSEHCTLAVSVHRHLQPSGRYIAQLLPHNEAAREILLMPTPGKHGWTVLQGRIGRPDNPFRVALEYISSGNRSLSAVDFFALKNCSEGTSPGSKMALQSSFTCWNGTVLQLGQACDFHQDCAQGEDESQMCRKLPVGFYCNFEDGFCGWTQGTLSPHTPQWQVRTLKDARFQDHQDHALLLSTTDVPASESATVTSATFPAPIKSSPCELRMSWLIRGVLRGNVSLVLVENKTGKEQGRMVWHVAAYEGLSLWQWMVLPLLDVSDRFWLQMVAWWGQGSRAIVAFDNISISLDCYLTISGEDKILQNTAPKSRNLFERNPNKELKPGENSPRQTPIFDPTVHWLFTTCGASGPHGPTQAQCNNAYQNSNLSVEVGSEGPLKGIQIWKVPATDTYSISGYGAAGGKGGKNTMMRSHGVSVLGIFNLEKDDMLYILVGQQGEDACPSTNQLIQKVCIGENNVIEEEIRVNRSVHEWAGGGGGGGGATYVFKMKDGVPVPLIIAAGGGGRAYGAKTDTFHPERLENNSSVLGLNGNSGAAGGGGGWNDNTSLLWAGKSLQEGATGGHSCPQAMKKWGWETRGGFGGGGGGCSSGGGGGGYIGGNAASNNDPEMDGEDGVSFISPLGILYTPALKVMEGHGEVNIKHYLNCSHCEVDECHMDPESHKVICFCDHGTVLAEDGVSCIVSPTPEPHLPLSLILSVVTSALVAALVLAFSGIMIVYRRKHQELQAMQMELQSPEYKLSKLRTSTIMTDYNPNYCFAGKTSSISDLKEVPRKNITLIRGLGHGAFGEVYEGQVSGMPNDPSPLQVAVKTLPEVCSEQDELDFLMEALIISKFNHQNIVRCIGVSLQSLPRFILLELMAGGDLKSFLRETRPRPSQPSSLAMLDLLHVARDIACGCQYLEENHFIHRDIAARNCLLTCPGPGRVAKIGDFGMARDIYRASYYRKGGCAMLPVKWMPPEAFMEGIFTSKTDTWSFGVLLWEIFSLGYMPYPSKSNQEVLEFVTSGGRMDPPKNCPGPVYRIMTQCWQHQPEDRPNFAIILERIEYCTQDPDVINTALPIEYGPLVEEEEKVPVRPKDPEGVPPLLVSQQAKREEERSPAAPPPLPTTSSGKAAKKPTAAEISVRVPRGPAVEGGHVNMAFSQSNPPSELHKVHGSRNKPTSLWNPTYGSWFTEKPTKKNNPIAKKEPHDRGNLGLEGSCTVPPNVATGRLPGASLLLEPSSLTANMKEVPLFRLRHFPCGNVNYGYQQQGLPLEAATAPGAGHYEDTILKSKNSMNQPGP

[14] = biological target: T1, ALK tyrosine kinase receptor; experiment: Inhibition of ALK phosphorylation in mouse xenografted with human KARPAS299 cells assessed as p-ALK level at 25 mg/kg, po administered as single dose measured after 16 hrs relative to 2 hrs vehicle-treated tumor; assay type: organism-based; design: scale not given: the % may be the effect or the level left; conditions: KARPAS-299
Target sequence in this assay (Q9UM73 19-1620 limits assumed): as above

[15] = biological target: T1, ALK tyrosine kinase receptor; experiment: Inhibition of ALK phosphorylation in mouse xenografted with human KARPAS299 cells assessed as p-ALK level at 25 mg/kg, po administered as single dose measured after 24 hrs relative to 2 hrs vehicle-treated tumor; assay type: organism-based; design: scale not given: the % may be the effect or the level left; conditions: KARPAS-299
Target sequence in this assay (Q9UM73 19-1620 limits assumed): as above

KARPAS-299 [16] = experiment: Antitumor activity against human KARPAS299 cells xenografted in SCID/beige mouse assessed as tumor growth inhibition administered orally once daily for 13 days relative to untreated control; assay type: functional, cell-based
KARPAS-299 [17] = experiment: Antitumor activity against human KARPAS299 cells expressing […] fusion protein xenografted in SCID/beige mouse assessed as tumor regression at 50 mg/kg, po administered once daily for 13 days; assay type: functional, organism-based
Mus musculus [18] = experiment: Toxicity in SCID/beige mouse xenografted with human KARPAS299 cells expressing […] fusion protein at 50 mg/kg, po administered once daily for 13 days; assay type: organism-based, KARPAS-299; conditions: in vivo, 312 h
NCI-H3122 = experiment: Antitumor activity against human NCI-H3122 cells expressing EML4-ALK fusion protein xenografted in SCID/beige mouse assessed as tumor regression compound administered as once-daily oral dose for 19 days; assay type: functional, cell-based
Mus musculus [19] = experiment: Toxicity in SCID/beige mouse xenografted with human NCI-H3122 cells assessed as body weight loss at 10 to 50 mg/kg, po administered once daily for 19 days relative to vehicle-treated control; assay type: organism-based; conditions: in vivo, 456 h
[20] = biological target: Hepatocyte growth factor receptor (Homo sapiens) (UniProt P08581); experiment: Inhibition of human c-Met using [KKKSPGEYVNIEFG as substrate and [gamma-33P]ATP up to 1 uM measured after 1 hr
[21] = biological target: Macrophage-stimulating protein receptor (Homo sapiens) (UniProt Q04912); experiment: Inhibition of human Ron using KKSRGDYMTMQIG as substrate and [gamma-33P]ATP measured up to 1 uM after 1 hr
Homo sapiens [22] = species on record: Homo sapiens; experiment: Inhibition of human EML4/ALK F1174C/V mutant
Homo sapiens [23] = species on record: Homo sapiens; experiment: Inhibition of human EML4/ALK I1171N mutant
Homo sapiens [24] = species on record: Homo sapiens; experiment: Inhibition of human EML4/ALK […] mutant
[25] = Protein binding in human plasma; assay type: ADME, cell-free; conditions: read-out: PPB (converted)
[26] = Protein binding in rat plasma; assay type: ADME, cell-free; conditions: read-out: PPB (converted)
[27] = Protein binding in mouse plasma; assay type: ADME, cell-free; conditions: read-out: PPB (converted)
[28] = Aqueous solubility of the compound at physiological pH; assay type: physicochemical; conditions: buffer
[29] = Lipophilicity, logD of the compound at pH 7; assay type: physicochemical; conditions: buffer
cells [30] = conditions: Homo sapiens, KARPAS-299, 72 h
Description: Antiproliferative activity against human ALK-positive KARPAS299 cells assessed as reduction in cell viability measured after 72 hrs by CellTiter 96 aqueous one solution cell proliferation assay

cells [31] = conditions: Homo sapiens, U-937, 72 h
Description: Antiproliferative activity against human ALK-negative U937 cells assessed as reduction in cell viability measured after 72 hrs by CellTiter 96 aqueous one solution cell proliferation assay

animal or person [32] = conditions: Homo sapiens, KARPAS-299, po, 312 h, read-out: TGI
Description: Antitumor activity against human KARPAS299 cells expressing NMP-ALK fusion protein xenografted in SCID/beige mouse assessed as tumor growth inhibition at 10 mg/kg, po administered once daily for 13 days relative to untreated control

animal or person [33] = conditions: Homo sapiens, KARPAS-299, po, 312 h, read-out: TGI; remark: listed apart in the source
Description: Antitumor activity against human KARPAS299 cells expressing NMP-ALK fusion protein xenografted in SCID/beige mouse assessed as tumor growth inhibition at 25 mg/kg, po administered once daily for 13 days relative to untreated control

animal or person [34] = conditions: Homo sapiens, KARPAS-299, po, 312 h, read-out: TGI; remark: listed apart in the source
Description: Antitumor activity against human KARPAS299 cells expressing NMP-ALK fusion protein xenografted in SCID/beige mouse assessed as tumor growth inhibition at 50 mg/kg, po administered once daily for 13 days relative to untreated control

[35] = as §1; assay type: ADME, organism-based; design: dose 3 mg/kg, time infinity, route intravenous; conditions: CD, in vivo
[36] = Clearance in CD rat at 3 mg/kg, iv by LC-MS/MS analysis; assay type: ADME, organism-based; conditions: in vivo
[37] = as §2; assay type: ADME, organism-based; conditions: CD, in vivo
[38] = as §3; assay type: ADME, organism-based; conditions: CD, in vivo, read-out: Vdss
KARPAS-299 [39] = experiment: Antitumor activity against human KARPAS299 cells expressing […] fusion protein xenografted in SCID/beige mouse assessed as tumor stasis at 50 mg/kg, po administered once daily for 13 days; assay type: functional, organism-based
[40] = biological target: T1, ALK tyrosine kinase receptor
Description: Inhibition of human ALK using poly[Glu:Tyr] (4:1) as substrate and [gamma-33P]ATP measured after 1 hr

Chain of Insulin-like growth factor 1 receptor (P08069 31-736 limits assumed): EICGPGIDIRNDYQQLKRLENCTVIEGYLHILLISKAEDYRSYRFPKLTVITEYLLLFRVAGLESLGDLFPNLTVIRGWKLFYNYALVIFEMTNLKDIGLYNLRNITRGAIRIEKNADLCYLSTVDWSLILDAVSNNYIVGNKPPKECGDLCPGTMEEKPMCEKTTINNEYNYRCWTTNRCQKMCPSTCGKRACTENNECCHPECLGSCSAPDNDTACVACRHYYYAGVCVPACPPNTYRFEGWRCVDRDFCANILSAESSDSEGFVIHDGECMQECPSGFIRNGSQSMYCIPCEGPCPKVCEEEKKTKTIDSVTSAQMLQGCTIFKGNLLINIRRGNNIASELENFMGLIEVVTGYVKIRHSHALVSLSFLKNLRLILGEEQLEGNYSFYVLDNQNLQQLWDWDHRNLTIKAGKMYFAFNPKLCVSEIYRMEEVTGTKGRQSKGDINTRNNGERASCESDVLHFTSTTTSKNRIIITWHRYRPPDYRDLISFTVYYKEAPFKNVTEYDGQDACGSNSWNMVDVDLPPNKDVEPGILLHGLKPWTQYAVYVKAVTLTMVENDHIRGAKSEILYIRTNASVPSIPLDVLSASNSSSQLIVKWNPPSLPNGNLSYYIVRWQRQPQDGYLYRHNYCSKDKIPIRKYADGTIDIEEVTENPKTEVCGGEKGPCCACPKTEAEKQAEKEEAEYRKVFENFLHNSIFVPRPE
Chain of Insulin-like growth factor 1 receptor (P08069 741-1367 limits assumed): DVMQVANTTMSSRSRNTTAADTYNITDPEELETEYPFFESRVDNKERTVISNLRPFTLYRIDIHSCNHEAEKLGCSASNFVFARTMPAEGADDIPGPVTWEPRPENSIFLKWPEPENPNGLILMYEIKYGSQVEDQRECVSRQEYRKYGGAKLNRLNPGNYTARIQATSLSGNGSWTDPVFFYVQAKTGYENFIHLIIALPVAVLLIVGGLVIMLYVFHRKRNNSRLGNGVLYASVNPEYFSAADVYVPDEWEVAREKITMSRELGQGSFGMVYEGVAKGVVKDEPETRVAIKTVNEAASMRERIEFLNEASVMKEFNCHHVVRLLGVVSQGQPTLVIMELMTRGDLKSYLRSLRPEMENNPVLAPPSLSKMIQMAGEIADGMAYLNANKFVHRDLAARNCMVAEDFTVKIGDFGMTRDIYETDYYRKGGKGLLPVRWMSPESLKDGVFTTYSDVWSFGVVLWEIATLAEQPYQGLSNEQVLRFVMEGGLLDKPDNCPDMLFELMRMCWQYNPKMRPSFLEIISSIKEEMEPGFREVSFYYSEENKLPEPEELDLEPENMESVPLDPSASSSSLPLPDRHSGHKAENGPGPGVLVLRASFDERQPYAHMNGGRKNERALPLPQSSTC
Chain of Insulin receptor (P06213 28-758 limits assumed): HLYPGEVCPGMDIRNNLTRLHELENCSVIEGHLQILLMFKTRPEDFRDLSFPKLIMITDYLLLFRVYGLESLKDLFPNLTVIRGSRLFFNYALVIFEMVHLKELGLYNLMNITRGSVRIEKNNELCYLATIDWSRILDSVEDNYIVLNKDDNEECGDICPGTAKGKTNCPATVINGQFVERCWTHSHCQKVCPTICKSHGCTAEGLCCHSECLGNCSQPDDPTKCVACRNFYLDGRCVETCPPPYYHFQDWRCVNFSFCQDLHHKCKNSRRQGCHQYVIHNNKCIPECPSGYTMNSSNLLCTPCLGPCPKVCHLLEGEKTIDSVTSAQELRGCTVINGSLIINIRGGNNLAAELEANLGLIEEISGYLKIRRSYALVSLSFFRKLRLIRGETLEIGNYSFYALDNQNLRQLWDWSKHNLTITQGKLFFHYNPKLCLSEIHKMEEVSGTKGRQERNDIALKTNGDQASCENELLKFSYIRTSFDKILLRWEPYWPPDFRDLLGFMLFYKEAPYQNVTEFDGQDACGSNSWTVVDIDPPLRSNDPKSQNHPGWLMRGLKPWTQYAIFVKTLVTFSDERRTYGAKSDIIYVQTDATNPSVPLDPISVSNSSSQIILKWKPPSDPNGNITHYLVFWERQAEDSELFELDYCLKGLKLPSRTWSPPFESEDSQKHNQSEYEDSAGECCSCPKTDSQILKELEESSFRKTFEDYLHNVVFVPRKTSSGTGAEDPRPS
Chain of Insulin receptor (P06213 763-1382 limits assumed): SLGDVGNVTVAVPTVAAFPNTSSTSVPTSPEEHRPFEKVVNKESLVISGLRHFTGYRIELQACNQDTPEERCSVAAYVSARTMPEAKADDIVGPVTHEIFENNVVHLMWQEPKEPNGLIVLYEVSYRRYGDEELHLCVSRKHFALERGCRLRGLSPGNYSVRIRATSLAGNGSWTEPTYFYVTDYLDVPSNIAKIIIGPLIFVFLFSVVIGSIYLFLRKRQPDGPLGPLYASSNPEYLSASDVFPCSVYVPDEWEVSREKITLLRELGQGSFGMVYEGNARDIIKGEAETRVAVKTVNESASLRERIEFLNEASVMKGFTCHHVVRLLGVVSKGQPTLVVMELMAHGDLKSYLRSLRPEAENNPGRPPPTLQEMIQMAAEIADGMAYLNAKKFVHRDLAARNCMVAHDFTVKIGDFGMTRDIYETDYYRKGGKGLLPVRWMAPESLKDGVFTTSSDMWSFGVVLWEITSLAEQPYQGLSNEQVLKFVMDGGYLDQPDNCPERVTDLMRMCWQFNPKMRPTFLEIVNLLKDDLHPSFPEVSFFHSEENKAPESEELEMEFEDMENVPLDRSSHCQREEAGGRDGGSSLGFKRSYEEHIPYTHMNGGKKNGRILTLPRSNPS

COc1cc(N2CCC(N3CCN(C)CC3)CC2)ccc1Nc1ncc(Cl)c(Nc2ccccc2P(C)(C)=O)n1 [BRIGATINIB]
IC50 [1]: 24.9 nM
IC50 (Insulin receptor): 196 nM
AUC (Rattus norvegicus [2]): 2268 ng·h/mL
t1/2 (Rattus norvegicus [3]): 4.8 h
Vdss (Rattus norvegicus [4]): 7.8 L/kg
Cmax [5]: 305 ng/mL
AUC(0-inf) [6]: 3950 ng·h/mL
Tmax [7]: 4 h
half-life [8]: 3.4 h
bioavailability [9]: 52%
Cmax [10]: 448 ng/mL
AUC(0-t) at 24 h [11]: 5770 ng·h/mL
half-life [12]: 5.8 h
Activity [13]: 1%
Activity [14]: 7%
Activity [15]: 39%
TGI (KARPAS-299 [16]): Dose-dependent effect
Activity (KARPAS-299 [17]): Active
Activity (Mus musculus [18]): Non-toxic
Activity (NCI-H3122): Dose-dependent effect
Activity (Mus musculus [19]): Non-toxic
inhibition [20]: inactive
inhibition [21]: inactive
inhibition (Homo sapiens [22]): Active
inhibition (Homo sapiens [23]): Active
inhibition (Homo sapiens [24]): Active
fraction unbound [25]: 0.34
fraction unbound [26]: 0.27
fraction unbound [27]: 0.36
solubility [28]: 337 µg/mL (≈ 577 µM)
logD [29]: 3.02
GI50 (cells [30]): 10 nM
IC50 (cells [30]): 29 nM
IC50 (cells [31]): 3190 nM
inhibition in vivo at 10 mg/kg (animal or person [32]): 50%
inhibition in vivo at 25 mg/kg (animal or person [33]): 12%
inhibition in vivo at 50 mg/kg (animal or person [34]): -11%

COc1cc(N2CCN(C)CC2)ccc1Nc1ncc(Cl)c(Nc2ccccc2P(C)(C)=O)n1
IC50 [1]: 20.3 nM
IC50 (Insulin receptor): 90.6 nM
AUC(0-inf) [35]: 3090 ng·h/mL
clearance [36]: 15.2 mL/min/kg
half-life [37]: 6.6 h
Vd [38]: 6.12 L/kg
Cmax [5]: 254 ng/mL
AUC(0-inf) [6]: 4060 ng·h/mL
Tmax [7]: 6 h
half-life [8]: 12.5 h
bioavailability [9]: 39%
Cmax [10]: 418 ng/mL
AUC(0-t) at 24 h [11]: 5180 ng·h/mL
half-life [12]: 2.7 h
Activity [13]: 2%
Activity [14]: 14%
Activity [15]: 94%
TGI (KARPAS-299 [16]): Dose-dependent effect
Activity (KARPAS-299 [39]): Active
Activity (Mus musculus [18]): Non-toxic
IC50 [40]: 0.18 nM
IC50 (cells [30]): 28.3 nM
IC50 (cells [31]): 1590 nM
inhibition in vivo at 10 mg/kg (animal or person [32]): 81%
inhibition in vivo at 25 mg/kg (animal or person [33]): 41%
inhibition in vivo at 50 mg/kg (animal or person [34]): 1.4%
